# Data as given in patent US20020137929A1, “1 - (3-heterocyclylphenyl) isothiourea, -isourea, -guanidine and -amidine herbicidal agents” (Intellectual Property Department, BASF Aktiengesellschaft, priority 1998, published 2002).
# Experiments:
# ABUTH (Velvetleaf) = experiment: Postemergence herbicidal evaluation; type: in vivo, Abutilon theophrasti
# Summary of the method: (§1)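 Herbicidal effect was judged by eye on a 0–9 scale covering stand, vigor, deformity, size and chlorosis, compared with controls, four to five weeks after seedlings about two weeks old were sprayed (40 psi, ~0.0156–0.500 kg/ha).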
# [1] = test system: CHEAL (Lambsquarters, Common); experiment: Postemergence herbicidal evaluation; type: in vivo, Chenopodium album
# Summary of the method: as §1
# SETVI (Foxtail, Green) [2] = experiment: Postemergence herbicidal evaluation; type: in vivo, Setaria viridis
# Summary of the method: as §1
# [3] = test system: GLXMAW (Soybean, Williams); experiment: Postemergence herbicidal evaluation; type: in vivo, Glycine max, (L.) Merr. cv Williams
# Summary of the method: as §1
# ORYSAT (Rice, Tebonnet) = experiment: Postemergence herbicidal evaluation; type: in vivo, Oryza sativa, (L.) Tebonnet
# Summary of the method: as §1
# [4] = test system: TRZAWR (Wheat, Winter, cv Riband); experiment: Postemergence herbicidal evaluation; type: in vivo, Triticum aestivum
# Summary of the method: as §1
# ZEAMX (Corn, Field) = experiment: Postemergence herbicidal evaluation; type: in vivo, Zea mays
# Summary of the method: as §1
# AMBEL (Ragweed, Common) = experiment: Preemergence herbicidal evaluation; type: in vivo, Ambrosia artemisifolia; settings: rated 4-5 weeks after treatment
# Summary of the method: (§2)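 Sown cups got a single aqueous acetone spray of test compound (roughly 0.0156–0.500 kg/ha) before seedlings emerged. Evaluation, 4–5 weeks on, used a 0–9 visual scale covering plant stand, vigor, size, malformation, chlorosis and general appearance compared with controls.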
# GALAP (Galium) = experiment: Preemergence herbicidal evaluation; type: in vivo, Galium aparine; settings: rated 4-5 weeks after treatment
# Summary of the method: as §2
# SETVI (Foxtail, Green) [5] = experiment: Preemergence herbicidal evaluation; type: in vivo, Setaria viridis; settings: rated 4-5 weeks after treatment
# Summary of the method: as §2
# CYPIR (Rice Flatsedge) = experiment: Preemergence weed control under flooded paddy conditions; type: in vivo, Cyperus iria; settings: rated 3-4 weeks after treatment
# Summary of the method: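 First, seeds or propagules go into the top 0.5 cm of silt loam; next, water is held 1.5 to 3 cm over the soil; then compound (50/50 acetone/water) is pipetted into it at about 0.0313 to 0.500 kg/ha; finally plants are rated visually 0-9 after three to four weeks.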
# [6] = test system: ECHORC (Watergrass (Calif.)); experiment: Postemergence weed control under flooded paddy conditions; type: in vivo, Echinochloa oryzoides; settings: postemergence weeds, 3-4 weeks after treatment
# Summary of the method: (§3)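 Injury ratings (0–9 scale covering stand, vigor, malformation, size, chlorosis and overall appearance versus control) were made three to four weeks after treatment. Test material, about 0.0313 to 0.500 kg/ha a.i. in 50/50 v/v aqueous/acetone, was added to flood water 1.5 to 3 cm deep over 3 to 5 cm weeds and 1.5 to 2.5 leaf rice.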
# CYPSE (Flatsedge) = experiment: as above; type: in vivo, Cyperus serotinus; settings: postemergence weeds, 3-4 weeks after treatment
# Summary of the method: as §3
# [7] = test system: SAGPY (Arrowhead (Pygmaea)); experiment: as above; type: in vivo, Sagittaria pygmaea; settings: postemergence weeds, 3-4 weeks after treatment
# Summary of the method: as §3
structure (smiles),measurement,setting,value
"Cn1c(C(F)(F)F)cc(=O)n(-c2cc(N=C3SCC(=O)N3[C@@H](Cc3ccccc3)C(=O)O)c(Cl)cc2F)c1=O [Compound 53, α-Benzyl-2-{{2-chloro-5-[3,6-dihydro-3-methyl-2,6-dioxo-4-(trifluoromethyl)-1(2H)-pyrimidinyl]-4-fluorophenyl}imino}-4-oxo-3-thiazolidineacetic acid, L-]",Postemergence herbicidal rating ABUTH,ABUTH (Velvetleaf); Rate 0.0158 kg/ha,9.0
same,Postemergence herbicidal rating ABUTH,ABUTH (Velvetleaf); Rate 0.0315 kg/ha,9.0
same,Postemergence herbicidal rating ABUTH,ABUTH (Velvetleaf); Rate 0.0630 kg/ha,9.0
same,Postemergence herbicidal rating CHEAL,[1]; Rate 0.0158 kg/ha,7.0
same,Postemergence herbicidal rating CHEAL,[1]; Rate 0.0315 kg/ha,9.0
same,Postemergence herbicidal rating CHEAL,[1]; Rate 0.0630 kg/ha,9.0
same,Postemergence herbicidal rating SETVI,"SETVI (Foxtail, Green) [2]; Rate 0.0158 kg/ha",6.0
same,Postemergence herbicidal rating SETVI,"SETVI (Foxtail, Green) [2]; Rate 0.0315 kg/ha",6.0
same,Postemergence herbicidal rating SETVI,"SETVI (Foxtail, Green) [2]; Rate 0.0630 kg/ha",7.0
same,Postemergence herbicidal rating GLXMAW,[3]; Rate 0.0158 kg/ha,9.0
same,Postemergence herbicidal rating GLXMAW,[3]; Rate 0.0315 kg/ha,9.0
same,Postemergence herbicidal rating GLXMAW,[3]; Rate 0.0630 kg/ha,9.0
same,Postemergence herbicidal rating ORYSAT,"ORYSAT (Rice, Tebonnet); Rate 0.0158 kg/ha",2.0
same,Postemergence herbicidal rating ORYSAT,"ORYSAT (Rice, Tebonnet); Rate 0.0315 kg/ha",2.5
same,Postemergence herbicidal rating ORYSAT,"ORYSAT (Rice, Tebonnet); Rate 0.0630 kg/ha",3.5
same,Postemergence herbicidal rating TRZAWR,[4]; Rate 0.0158 kg/ha,2.5
same,Postemergence herbicidal rating TRZAWR,[4]; Rate 0.0315 kg/ha,3.0
same,Postemergence herbicidal rating TRZAWR,[4]; Rate 0.0630 kg/ha,4.0
same,Postemergence herbicidal rating ZEAMX,"ZEAMX (Corn, Field); Rate 0.0158 kg/ha",5.5
same,Postemergence herbicidal rating ZEAMX,"ZEAMX (Corn, Field); Rate 0.0315 kg/ha",7.5
same,Postemergence herbicidal rating ZEAMX,"ZEAMX (Corn, Field); Rate 0.0630 kg/ha",8.0
same,Preemergence herbicidal rating AMBEL,"AMBEL (Ragweed, Common); rate 0.0313 kg/ha",0.0
same,Preemergence herbicidal rating AMBEL,"AMBEL (Ragweed, Common); rate 0.0625 kg/ha",9.0
same,Preemergence herbicidal rating AMBEL,"AMBEL (Ragweed, Common); rate 0.1250 kg/ha",9.0
same,Preemergence herbicidal rating AMBEL,"AMBEL (Ragweed, Common); rate 0.2500 kg/ha",9.0
same,Preemergence herbicidal rating GALAP,GALAP (Galium); rate 0.0313 kg/ha,0.0
same,Preemergence herbicidal rating GALAP,GALAP (Galium); rate 0.0625 kg/ha,0.0
same,Preemergence herbicidal rating GALAP,GALAP (Galium); rate 0.1250 kg/ha,0.0
same,Preemergence herbicidal rating GALAP,GALAP (Galium); rate 0.2500 kg/ha,7.0
same,Preemergence herbicidal rating SETVI,"SETVI (Foxtail, Green) [5]; rate 0.0313 kg/ha",1.0
same,Preemergence herbicidal rating SETVI,"SETVI (Foxtail, Green) [5]; rate 0.0625 kg/ha",4.0
same,Preemergence herbicidal rating SETVI,"SETVI (Foxtail, Green) [5]; rate 0.1250 kg/ha",7.0
same,Preemergence herbicidal rating SETVI,"SETVI (Foxtail, Green) [5]; rate 0.2500 kg/ha",9.0
same,Herbicidal rating CYPIR,CYPIR (Rice Flatsedge); 0.0313 kg/ha,2.0
same,Herbicidal rating CYPIR,CYPIR (Rice Flatsedge); 0.0625 kg/ha,2.0
same,Herbicidal rating CYPIR,CYPIR (Rice Flatsedge); 0.1250 kg/ha,9.0
same,Herbicidal rating CYPIR,CYPIR (Rice Flatsedge); 0.2500 kg/ha,9.0
same,Herbicidal rating ECHORC,[6]; rate 0.0313 kg/ha,0.0
same,Herbicidal rating ECHORC,[6]; rate 0.0625 kg/ha,0.0
same,Herbicidal rating ECHORC,[6]; rate 0.1250 kg/ha,2.0
same,Herbicidal rating ECHORC,[6]; rate 0.2500 kg/ha,3.0
same,Herbicidal rating CYPSE,CYPSE (Flatsedge); rate 0.0313 kg/ha,0.0
same,Herbicidal rating CYPSE,CYPSE (Flatsedge); rate 0.0625 kg/ha,0.0
same,Herbicidal rating CYPSE,CYPSE (Flatsedge); rate 0.1250 kg/ha,0.0
same,Herbicidal rating CYPSE,CYPSE (Flatsedge); rate 0.2500 kg/ha,0.0
same,Herbicidal rating SAGPY,[7]; rate 0.0313 kg/ha,0.0
same,Herbicidal rating SAGPY,[7]; rate 0.0625 kg/ha,0.0
same,Herbicidal rating SAGPY,[7]; rate 0.1250 kg/ha,0.0
same,Herbicidal rating SAGPY,[7]; rate 0.2500 kg/ha,0.0
"CCOC(=O)CCN1C(=O)CSC1=Nc1cc(-n2c(=O)cc(C(F)(F)F)n(C)c2=O)c(Cl)cc1Cl [Compound 32, Ethyl 2-{{2,4-dichloro-5-[3,6-dihydro-3-methyl-2,6-dioxo-4-(trifluoromethyl)-1(2H)-pyrimidinyl]-phenyl}imino}-4-oxo-3-thiazolidinepropionate]",Postemergence herbicidal rating ABUTH,ABUTH (Velvetleaf); Rate 0.0158 kg/ha,5.0
same,Postemergence herbicidal rating ABUTH,ABUTH (Velvetleaf); Rate 0.0313 kg/ha,9.0
same,Postemergence herbicidal rating ABUTH,ABUTH (Velvetleaf); Rate 0.0625 kg/ha,9.0
same,Postemergence herbicidal rating ABUTH,ABUTH (Velvetleaf); Rate 0.1250 kg/ha,9.0
same,Postemergence herbicidal rating CHEAL,[1]; Rate 0.0158 kg/ha,3.0
same,Postemergence herbicidal rating CHEAL,[1]; Rate 0.0313 kg/ha,0.0
same,Postemergence herbicidal rating CHEAL,[1]; Rate 0.0625 kg/ha,2.0
same,Postemergence herbicidal rating CHEAL,[1]; Rate 0.1250 kg/ha,6.0
same,Postemergence herbicidal rating SETVI,"SETVI (Foxtail, Green) [2]; Rate 0.0158 kg/ha",0.0
same,Postemergence herbicidal rating SETVI,"SETVI (Foxtail, Green) [2]; Rate 0.0313 kg/ha",0.0
same,Postemergence herbicidal rating SETVI,"SETVI (Foxtail, Green) [2]; Rate 0.0625 kg/ha",0.0
same,Postemergence herbicidal rating SETVI,"SETVI (Foxtail, Green) [2]; Rate 0.1250 kg/ha",7.0
same,Postemergence herbicidal rating GLXMAW,[3]; Rate 0.0158 kg/ha,3.5
same,Postemergence herbicidal rating GLXMAW,[3]; Rate 0.0313 kg/ha,5.5
same,Postemergence herbicidal rating GLXMAW,[3]; Rate 0.0625 kg/ha,6.0
same,Postemergence herbicidal rating GLXMAW,[3]; Rate 0.1250 kg/ha,6.0
same,Postemergence herbicidal rating ORYSAT,"ORYSAT (Rice, Tebonnet); Rate 0.0158 kg/ha",1.0
same,Postemergence herbicidal rating ORYSAT,"ORYSAT (Rice, Tebonnet); Rate 0.0313 kg/ha",2.0
same,Postemergence herbicidal rating ORYSAT,"ORYSAT (Rice, Tebonnet); Rate 0.0625 kg/ha",3.0
same,Postemergence herbicidal rating ORYSAT,"ORYSAT (Rice, Tebonnet); Rate 0.1250 kg/ha",3.5
same,Postemergence herbicidal rating TRZAWR,[4]; Rate 0.0158 kg/ha,2.0
same,Postemergence herbicidal rating TRZAWR,[4]; Rate 0.0313 kg/ha,3.5
same,Postemergence herbicidal rating TRZAWR,[4]; Rate 0.0625 kg/ha,4.0
same,Postemergence herbicidal rating TRZAWR,[4]; Rate 0.1250 kg/ha,4.0
same,Postemergence herbicidal rating ZEAMX,"ZEAMX (Corn, Field); Rate 0.0158 kg/ha",4.0
same,Postemergence herbicidal rating ZEAMX,"ZEAMX (Corn, Field); Rate 0.0313 kg/ha",6.0
same,Postemergence herbicidal rating ZEAMX,"ZEAMX (Corn, Field); Rate 0.0625 kg/ha",7.0
same,Postemergence herbicidal rating ZEAMX,"ZEAMX (Corn, Field); Rate 0.1250 kg/ha",7.0
same,Preemergence herbicidal rating AMBEL,"AMBEL (Ragweed, Common); rate 0.0156 kg/ha",0.0
same,Preemergence herbicidal rating AMBEL,"AMBEL (Ragweed, Common); rate 0.0313 kg/ha",0.5
same,Preemergence herbicidal rating AMBEL,"AMBEL (Ragweed, Common); rate 0.0625 kg/ha",0.5
same,Preemergence herbicidal rating AMBEL,"AMBEL (Ragweed, Common); rate 0.1250 kg/ha",0.5
same,Preemergence herbicidal rating AMBEL,"AMBEL (Ragweed, Common); rate 0.2500 kg/ha",5.5
same,Preemergence herbicidal rating AMBEL,"AMBEL (Ragweed, Common); rate 0.5000 kg/ha",9.0
same,Preemergence herbicidal rating GALAP,GALAP (Galium); rate 0.0156 kg/ha,0.0
same,Preemergence herbicidal rating GALAP,GALAP (Galium); rate 0.0313 kg/ha,0.0
same,Preemergence herbicidal rating GALAP,GALAP (Galium); rate 0.0625 kg/ha,0.0
same,Preemergence herbicidal rating GALAP,GALAP (Galium); rate 0.1250 kg/ha,0.5
same,Preemergence herbicidal rating GALAP,GALAP (Galium); rate 0.2500 kg/ha,3.5
same,Preemergence herbicidal rating GALAP,GALAP (Galium); rate 0.5000 kg/ha,7.0
same,Preemergence herbicidal rating SETVI,"SETVI (Foxtail, Green) [5]; rate 0.0156 kg/ha",0.0
same,Preemergence herbicidal rating SETVI,"SETVI (Foxtail, Green) [5]; rate 0.0313 kg/ha",0.0
same,Preemergence herbicidal rating SETVI,"SETVI (Foxtail, Green) [5]; rate 0.0625 kg/ha",0.5
same,Preemergence herbicidal rating SETVI,"SETVI (Foxtail, Green) [5]; rate 0.1250 kg/ha",3.5
same,Preemergence herbicidal rating SETVI,"SETVI (Foxtail, Green) [5]; rate 0.2500 kg/ha",9.0
same,Preemergence herbicidal rating SETVI,"SETVI (Foxtail, Green) [5]; rate 0.5000 kg/ha",9.0
same,Herbicidal rating CYPIR,CYPIR (Rice Flatsedge); 0.1250 kg/ha,0.0
same,Herbicidal rating CYPIR,CYPIR (Rice Flatsedge); 0.2500 kg/ha,0.0
same,Herbicidal rating ECHORC,[6]; rate 0.1250 kg/ha,3.0
same,Herbicidal rating ECHORC,[6]; rate 0.2500 kg/ha,6.0
same,Herbicidal rating CYPSE,CYPSE (Flatsedge); rate 0.1250 kg/ha,0.0
same,Herbicidal rating CYPSE,CYPSE (Flatsedge); rate 0.2500 kg/ha,0.0
same,Herbicidal rating SAGPY,[7]; rate 0.1250 kg/ha,0.0
same,Herbicidal rating SAGPY,[7]; rate 0.2500 kg/ha,0.0
